From PMC11528023, “Transport mechanism and structural pharmacology of human urate transporter URAT1” (Cell Research, 2024) come the findings set out here.

For the experiment, the target named is T1, URAT1EM (Homo sapiens, UniProt Q96S37, A280P/A304R/A323S/A335R/D313K/DEL311-312/DEL60-62/G295A/G309E/G331A/G338L/G65T/I63V/INS307H/L287I/L292P/L321M/L328V/L337V/L341F/L64S/M324V/M330S/M343V/P317I/P333E/Q332K/R291K/R301K/R325K/R342C/S329A/T288I/T289K/T314N/T339D/W294Q/W300R).
T1 construct: human URAT1 (residues 3–553), a (GGGGS)3 linker, and C-terminal DARPinoff7; expressed in transfected cells; host or cells: HEK293 cells (ATCC, CRL-3216), transient transfection
T1 sequence (Q96S37 with tags, fused parts or gaps DEL60-62/I63V/L64S/G65T/A280P/L287I/T288I/T289K/R291K/L292P/W294Q/G295A/W300R/R301K/A304R/INS307H/G309E/DEL311-312/D313K/T314N/P317I/L321M/A323S/M324V/R325K/L328V/S329A/M330S/G331A/Q332K/P333E/A335R/L337V/G338L/T339D/L341F/R342C/M343V): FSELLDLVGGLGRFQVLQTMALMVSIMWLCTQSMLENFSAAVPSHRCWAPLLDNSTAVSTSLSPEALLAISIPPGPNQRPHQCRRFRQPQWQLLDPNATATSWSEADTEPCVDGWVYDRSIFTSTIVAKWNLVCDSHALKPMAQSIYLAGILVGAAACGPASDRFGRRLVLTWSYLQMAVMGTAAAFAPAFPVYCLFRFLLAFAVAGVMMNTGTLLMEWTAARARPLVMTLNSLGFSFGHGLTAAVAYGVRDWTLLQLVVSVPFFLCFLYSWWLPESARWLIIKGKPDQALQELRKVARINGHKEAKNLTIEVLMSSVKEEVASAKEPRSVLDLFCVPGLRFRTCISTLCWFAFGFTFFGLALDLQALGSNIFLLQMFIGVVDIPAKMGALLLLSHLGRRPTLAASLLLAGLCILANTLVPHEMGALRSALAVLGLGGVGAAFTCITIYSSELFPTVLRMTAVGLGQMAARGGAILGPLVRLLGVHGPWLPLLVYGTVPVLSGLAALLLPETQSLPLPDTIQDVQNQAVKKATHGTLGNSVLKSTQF
The experiment can be described thus: 14C-urate uptake in HEK293 cells expressing URAT1EM (cryo-EM construct). The class given is cell-based. As for the experimental part:
Data are shown as mean ± SD; n = 3 biological replicates. In a, b, uptake buffer: 20 mM HEPES pH 7.4, 125 mM sodium gluconate, 4.8 mM potassium gluconate, 1.2 mM monobasic potassium phosphate, 1.2 mM magnesium sulfate, 1.3 mM calcium gluconate, and 5.6 mM glucose. c Cryo-EM density maps of URAT1 in the apo and substrate-bound states. […] Putative lipid densities are in light cyan. d Cryo-EM density maps of URAT1 in the drug-bound states. […] Putative lipid densities are in light cyan. e Diagram of URAT1 topology. ECD, extracellular domain. f Structure of URAT1 in the apo state. g Slice view of URAT1 in the apo state, showing the central cavity and opening to the intracellular side.
Human embryonic kidney (HEK) 293 cells (ATCC, CRL-3216) were seeded onto poly(D-lysine)-coated 96-well plates at a density of 0.3 × 10^5 cells per well and cultured at 37 °C until reaching approximately 70%–80% confluence. The cells were transiently transfected with plasmids encoding the URAT1 WT or mutants using Lipofectamine 3000 (Invitrogen, L3000001), following the manufacturer’s protocol. The transfected cells were cultured at 37 °C for 12 h. Following this, 10 mM sodium butyrate was added, and the cells were further incubated at 30 °C for an additional 24 h. […]

Molecule `O=C(c1cc(Cl)c(O)c(Cl)c1)N1CS(=O)(=O)c2ccccc21` [dotinurad] gave an IC50 of 190 nM.

Usually IC50 stands for the concentration that gives 50% inhibition. Low values mean greater potency, high ones weaker potency.
